Consider nine compounds from PubChem BioAssay AID272 (DTP/NCI, 2004).

SMILES strings stand for the structures. Values joined by “and” are separate entries in the source; they are usually repeats but may differ in a detail not shown here. Equal entries are not always repeated. Results filed as inconclusive are left out.

This test concerns Lewis lung carcinoma i.m., BDF1 mice, T/C %. As to the kind of experiment: NCI In Vivo Anticancer Drug Screen. Data for tumor model Lewis Lung Carcinoma (intramuscular) in B6D2F1 (BDF1) mice. The procedure, abridged:
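Tumour-bearing mice were dosed with compound, and either their survival or their tumour size was measured. Results were expressed relative to vehicle-treated controls as T/C.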

The mark [1] stands for this setting: endpoint: mean tumor weight, dose: 25.0 mg/kg/injection, schedule: Q01DX011 (ip), vehicle: saline, higher = larger tumour.
The mark [2] stands for this setting: endpoint: mean tumor weight, dose: 50.0 mg/kg/injection, schedule: Q01DX011 (ip), vehicle: saline, higher = larger tumour.
[3] abbreviates: endpoint: mean tumor weight, dose: 100.0 mg/kg/injection, schedule: Q01DX011 (ip), vehicle: saline, higher = larger tumour.
Where [4] appears, read: endpoint: mean tumor weight, dose: 200.0 mg/kg/injection, schedule: Q01DX011 (ip), vehicle: saline, higher = larger tumour.
Where [5] appears, read: endpoint: median survival time, dose: 25.0 mg/kg/injection, schedule: Q01DX011 (ip), vehicle: saline, higher = longer survival.
[6] abbreviates: endpoint: median survival time, dose: 50.0 mg/kg/injection, schedule: Q01DX011 (ip), vehicle: saline, higher = longer survival.
The mark [7] stands for this setting: endpoint: median survival time, dose: 100.0 mg/kg/injection, schedule: Q01DX011 (ip), vehicle: saline, higher = longer survival.

With `CC(=O)OCC1OC(n2ncc(=O)[nH]c2=O)C(OC(C)=O)C1OC(C)=O` (stereo unspecified), the T/C by setting is: (endpoint: mean tumor weight (est.), dose: 25.0 mg/kg/injection, schedule: Q01DX011 (ip), vehicle: water, higher = larger tumour) 89 % of control; (endpoint: mean tumor weight (est.), dose: 50.0 mg/kg/injection, schedule: Q01DX011 (ip), vehicle: water, higher = larger tumour) 62 % of control; (endpoint: mean tumor weight (est.), dose: 200.0 mg/kg/injection, schedule: Q01DX011 (ip), vehicle: water, higher = larger tumour) 75 % of control; (endpoint: mean tumor weight (est.), dose: 400.0 mg/kg/injection, schedule: Q01DX011 (ip), vehicle: water, higher = larger tumour) 85 % of control; (endpoint: mean tumor weight (est.), dose: 800.0 mg/kg/injection, schedule: Q01DX011 (ip), vehicle: water, higher = larger tumour) 40 % of control; (endpoint: mean tumor weight (est.), dose: 1600.0 mg/kg/injection, schedule: Q01DX011 (ip), vehicle: water, higher = larger tumour) 56 % of control. Also, the T/C is, setting by setting: (endpoint: mean tumor weight, dose: 25.0 mg/kg/injection, schedule: Q01DX011 (ip), vehicle: Klucel (hydroxypropylcellulose) (HPC), higher = larger tumour) 78 % of control; (endpoint: mean tumor weight, dose: 50.0 mg/kg/injection, schedule: Q01DX011 (ip), vehicle: Klucel (hydroxypropylcellulose) (HPC), higher = larger tumour) 71 % of control; (endpoint: mean tumor weight, dose: 100.0 mg/kg/injection, schedule: Q01DX011 (ip), vehicle: Klucel (hydroxypropylcellulose) (HPC), higher = larger tumour) 65 % of control; (endpoint: mean tumor weight, dose: 200.0 mg/kg/injection, schedule: Q01DX011 (ip), vehicle: Klucel (hydroxypropylcellulose) (HPC), higher = larger tumour) 68 % of control; (endpoint: mean tumor weight, dose: 400.0 mg/kg/injection, schedule: Q01DX011 (ip), vehicle: Klucel (hydroxypropylcellulose) (HPC), higher = larger tumour) 93 % of control; (endpoint: mean tumor weight, dose: 800.0 mg/kg/injection, schedule: Q01DX011 (ip), vehicle: Klucel (hydroxypropylcellulose) (HPC), higher = larger tumour) 37 % of control. Moreover, the T/C runs as follows: (endpoint: median survival time, dose: 25.0 mg/kg/injection, schedule: Q01DX011 (ip), vehicle: Klucel (hydroxypropylcellulose) (HPC), higher = longer survival) 110 % of control; (endpoint: median survival time, dose: 25.0 mg/kg/injection, schedule: Q01DX011 (ip), vehicle: water, higher = longer survival) 92 % of control; (endpoint: median survival time, dose: 50.0 mg/kg/injection, schedule: Q01DX011 (ip), vehicle: Klucel (hydroxypropylcellulose) (HPC), higher = longer survival) 94 % of control; (endpoint: median survival time, dose: 50.0 mg/kg/injection, schedule: Q01DX011 (ip), vehicle: water, higher = longer survival) 103 % of control; (endpoint: median survival time, dose: 100.0 mg/kg/injection, schedule: Q01DX011 (ip), vehicle: Klucel (hydroxypropylcellulose) (HPC), higher = longer survival) 112 % of control; (endpoint: median survival time, dose: 200.0 mg/kg/injection, schedule: Q01DX011 (ip), vehicle: water, higher = longer survival) 98 % of control. In addition, the T/C reads like this: (endpoint: median survival time, dose: 400.0 mg/kg/injection, schedule: Q01DX011 (ip), vehicle: Klucel (hydroxypropylcellulose) (HPC), higher = longer survival) 104 % of control; (endpoint: median survival time, dose: 400.0 mg/kg/injection, schedule: Q01DX011 (ip), vehicle: water, higher = longer survival) 121 % of control; (endpoint: median survival time, dose: 800.0 mg/kg/injection, schedule: Q01DX011 (ip), vehicle: Klucel (hydroxypropylcellulose) (HPC), higher = longer survival) 124 % of control; (endpoint: median survival time, dose: 800.0 mg/kg/injection, schedule: Q01DX011 (ip), vehicle: water, higher = longer survival) 88 % of control; (endpoint: median survival time, dose: 1600.0 mg/kg/injection, schedule: Q01DX011 (ip), vehicle: water, higher = longer survival) 111 % of control.
With `Nc1ccn(C2OC(COP(=O)(O)O)C(O)C2O)c(=O)n1` (stereo unspecified), the T/C by setting is: (endpoint: mean tumor weight, dose: 19.6 mg/kg/injection, schedule: Q01DX011 (ip), vehicle: saline, higher = larger tumour) 68 % of control; (endpoint: median survival time, dose: 19.6 mg/kg/injection, schedule: Q01DX011 (ip), vehicle: saline, higher = longer survival) 94 % of control and 96 % of control; (endpoint: median survival time, dose: 32.6 mg/kg/injection, schedule: Q01DX011 (ip), vehicle: saline, higher = longer survival) 43 % of control; (endpoint: median survival time, dose: 54.0 mg/kg/injection, schedule: Q01DX011 (ip), vehicle: saline, higher = longer survival) 42 % of control; (endpoint: median survival time, dose: 90.0 mg/kg/injection, schedule: Q01DX011 (ip), vehicle: saline, higher = longer survival) 39 % of control.
Consider `COC(=O)CC(OC)c1nc(C(=O)OC)c(C)c(=O)[nH]1` (stereo unspecified), for which the T/C by setting is: (endpoint: median survival time, dose: 8.0 mg/kg/injection, schedule: Q01DX009 (ip), vehicle: Klucel (hydroxypropylcellulose) (HPC), higher = longer survival) 114 % of control; (endpoint: median survival time, dose: 16.0 mg/kg/injection, schedule: Q01DX009 (ip), vehicle: Klucel (hydroxypropylcellulose) (HPC), higher = longer survival) 123 % of control; (endpoint: median survival time, dose: 32.0 mg/kg/injection, schedule: Q01DX009 (ip), vehicle: Klucel (hydroxypropylcellulose) (HPC), higher = longer survival) 88 % of control.
For the compound `CCCC(=O)Nc1ncnc2c1ncn2C1OC2COP(=O)(O)OC2C1OC(=O)CCC` (stereo unspecified), the T/C is 107 % of control under setting [1]; 106 % of control under setting [2]; 114 % of control under setting [3]; 96 % of control under setting [4]; 90 % of control (endpoint: mean tumor weight, dose: 400.0 mg/kg/injection, schedule: Q01DX011 (ip), vehicle: saline, higher = larger tumour); 118 % of control under setting [5]. In addition, the T/C is, setting by setting: under setting [6], 118 % of control; under setting [7], 100 % of control; (endpoint: median survival time, dose: 400.0 mg/kg/injection, schedule: Q01DX011 (ip), vehicle: saline, higher = longer survival) 104 % of control.
In the case of `COc1cc(OC)c(OC)cc1/C=C\c1ccnc2ccccc12`, the T/C is, setting by setting: (endpoint: mean tumor weight (est.), dose: 50.0 mg/kg/injection, schedule: Q01DX011 (ip), vehicle: saline with Tween-80, higher = larger tumour) 60 % of control; (endpoint: mean tumor weight (est.), dose: 100.0 mg/kg/injection, schedule: Q01DX011 (ip), vehicle: saline with Tween-80, higher = larger tumour) 51 % of control; (endpoint: mean tumor weight (est.), dose: 200.0 mg/kg/injection, schedule: Q01DX011 (ip), vehicle: saline with Tween-80, higher = larger tumour) 56 % of control; (endpoint: mean tumor weight (est.), dose: 400.0 mg/kg/injection, schedule: Q01DX011 (ip), vehicle: saline with Tween-80, higher = larger tumour) 34 % of control; (endpoint: median survival time, dose: 50.0 mg/kg/injection, schedule: Q01DX011 (ip), vehicle: saline with Tween-80, higher = longer survival) 105 % of control; (endpoint: median survival time, dose: 100.0 mg/kg/injection, schedule: Q01DX011 (ip), vehicle: saline with Tween-80, higher = longer survival) 103 % of control. In addition, the T/C is 86 % of control (endpoint: median survival time, dose: 200.0 mg/kg/injection, schedule: Q01DX011 (ip), vehicle: saline with Tween-80, higher = longer survival) and 100 % of control (endpoint: median survival time, dose: 400.0 mg/kg/injection, schedule: Q01DX011 (ip), vehicle: saline with Tween-80, higher = longer survival).
`N#C[C@@H]1C2C=CC(CC2)[C@H]1C#N`: the T/C is 56 % of control (endpoint: mean tumor weight (est.), dose: 0.15 mg/kg/injection, schedule: Q01DX011 (ip), vehicle: saline, higher = larger tumour); 83 % of control (endpoint: mean tumor weight (est.), dose: 0.3 mg/kg/injection, schedule: Q01DX011 (ip), vehicle: saline, higher = larger tumour); 98 % of control (endpoint: mean tumor weight (est.), dose: 0.6 mg/kg/injection, schedule: Q01DX011 (ip), vehicle: saline, higher = larger tumour); 95 % of control (endpoint: mean tumor weight (est.), dose: 1.2 mg/kg/injection, schedule: Q01DX011 (ip), vehicle: saline, higher = larger tumour).
With `CCc1ccc(/C=C/c2ccc(O)c3ncccc23)[n+](C)c1`, the T/C runs as follows: (endpoint: mean tumor weight, dose: 4.0 mg/kg/injection, schedule: Q01DX011 (ip), vehicle: saline, higher = larger tumour) 53 % of control; (endpoint: mean tumor weight, dose: 8.0 mg/kg/injection, schedule: Q01DX011 (ip), vehicle: saline, higher = larger tumour) 61 % of control; (endpoint: mean tumor weight, dose: 16.0 mg/kg/injection, schedule: Q01DX011 (ip), vehicle: saline, higher = larger tumour) 46 % of control; (endpoint: median survival time, dose: 4.0 mg/kg/injection, schedule: Q01DX011 (ip), vehicle: saline, higher = longer survival) 97 % of control; (endpoint: median survival time, dose: 8.0 mg/kg/injection, schedule: Q01DX011 (ip), vehicle: saline, higher = longer survival) 116 % of control.
In the case of `N#CSCc1ccc(Cl)cc1Cl`, the T/C reads like this: under setting [1], 75 % of control; under setting [2], 56 % of control; under setting [3], 25 % of control; under setting [4], 47 % of control; under setting [5], 86 % of control; under setting [6], 95 % of control. Further, the T/C reads like this: under setting [7], 119 % of control; (endpoint: median survival time, dose: 200.0 mg/kg/injection, schedule: Q01DX011 (ip), vehicle: saline, higher = longer survival) 106 % of control.
Turning to `Cc1nc(N)sc1CCCl`, the T/C by setting is: (endpoint: mean tumor weight (est.), dose: 10.0 mg/kg/injection, schedule: Q01DX011 (ip), vehicle: saline, higher = larger tumour) 86 % of control; (endpoint: mean tumor weight (est.), dose: 20.0 mg/kg/injection, schedule: Q01DX011 (ip), vehicle: saline, higher = larger tumour) 105 % of control; (endpoint: mean tumor weight (est.), dose: 40.0 mg/kg/injection, schedule: Q01DX011 (ip), vehicle: saline, higher = larger tumour) 91 % of control; (endpoint: median survival time, dose: 10.0 mg/kg/injection, schedule: Q01DX011 (ip), vehicle: saline, higher = longer survival) 98 % of control; (endpoint: median survival time, dose: 20.0 mg/kg/injection, schedule: Q01DX011 (ip), vehicle: saline, higher = longer survival) 104 % of control; (endpoint: median survival time, dose: 40.0 mg/kg/injection, schedule: Q01DX011 (ip), vehicle: saline, higher = longer survival) 104 % of control.
